From a melting point compilation (Tetko et al.; mined from patent text by program, amines drawn as free bases though some values may be those of a salt) come the findings set out here.

A value given as a limit tells only on which side of the number the result lay.

A word on the melting point: it is the temperature, or range, at which the solid turns liquid. Regarding `CN1CC(=O)OC2CCN(C(=O)c3ccc(NC(=O)c4ccccc4Cl)cc3)c3ccccc3C21` (stereo unspecified), the melting point lay in the range of 286 to 290 °C.
Consider `c1ccc(C2C3=NCCN3CCc3ccccc32)cc1` (stereo unspecified), for which the melting point was 122 to 123 °C.
Then `CCNC(=O)C(C)Oc1ccc(N(C)c2nc3cc(Cl)ccc3o2)cc1` (stereo unspecified), with 141 to 142 °C; and `CCC(CC)C(c1ccnn1-c1ccccc1)N(C)S(=O)(=O)c1ccc(Br)s1` (stereo unspecified), with 116 to 118 °C; and `CC(=O)Nc1ccc(Cl)cc1NC(C)=O`, with 216 °C.
Turning to `FC(F)(F)c1cccc(Nc2nccc(-c3ccnc(Cl)c3)n2)c1`, the melting point was in the range of 169 to 171 °C.
Then `CCCCCc1nc2cnc3ccccc3c2[nH]1`, with 142 to 143 °C.
The result for `CC(=O)NCC(=NNC(N)=S)c1ccccc1` reads 208 to 211 °C; that for `COc1ccc(C2=NN(C3CCN(C(=O)CCSCCN)CC3)C(=O)[C@@H]3CC=CC[C@H]23)cc1OC`, 137 to 139 °C; that for `CC(C)c1ccc(C(=O)NNC(=O)c2ccc(C(=O)O)cc2)cc1`, 235 to 237 °C.
`CCn1ncc2c(Cl)c(C#N)cnc21` showed a melting point of 100 to 102 °C.
`COc1ccc(S(=O)(=O)NC(=O)c2ccc(C(=O)NCCO)nc2)cc1` showed a melting point of 221 to 223 °C.
Consider `CP(=O)(O)CNC(=O)OCc1ccccc1`, for which the melting point lay within 118 to 119 °C.
`Cc1ccc2ncc(CSc3ccc([N+](=O)[O-])cc3)n2c1` showed a melting point of 127 to 128 °C.
Then `Cn1c(=O)c2cc([N+](=O)[O-])cnc2n(C)c1=O`, with 203 to 205 °C.
Then `O=c1ccc(S(=O)(=O)c2c[nH]c3ccccc23)n[nH]1`, with 248 to 250 °C; and `CCc1cc2c(cc1Cl)=CCc1cccnc1C=2C1CCN(C(=O)Cc2cccnc2)CC1`, with 67.2 to 69.8 °C.
Then `Cc1cc2n(C)c3ncccc3c(=O)n2n1`, with 242 °C; and `CCCCCCCCCCCCCCCCNc1ccc(C(=O)NS(=O)(=O)C(F)(F)F)cc1`, with 172 to 174 °C.
Regarding `C[C@@H](NC(=O)c1cnn(-c2ccc(Cl)cc2)c1C(C)(C)C)[C@](O)(Cn1cncn1)c1ccc(F)cc1F`, the melting point was 191 to 192 °C.
The result for `Cc1cc2c(-c3cccc(Cl)c3)nc(Cl)nc2s1` reads 118 to 120 °C; that for `COCN(c1c(C)ccc2ccccc12)C1COC(=O)C1` (stereo unspecified), 42 to 46 °C; that for `COC(=C(OC)c1ccccc1OC)c1ccc(N)nn1`, 139 to 142 °C.
Regarding `CS(=O)(=O)OCC1CCN(C(=O)OCc2ccccc2)CC1`, the melting point was 72 to 74 °C.
The result for `Cn1ncc(C(=O)c2ccc(S(C)(=O)=O)c(C3=NOCC3)c2Cl)c1O` reads more than 250 °C.
The result for `O=C(Nc1ccc(-c2c[nH]c(=O)cn2)cc1)c1cccc([N+](=O)[O-])c1` reads more than 250 °C; that for `COc1cc([N+](=O)[O-])c(CO)c(OC)c1OC`, 69 to 70 °C; that for `CCc1noc(-c2cn(-c3cccc(O)c3)cn2)n1`, 214 to 215 °C.
The result for `O=C(CON1C(=O)c2ccccc2C1=O)OC(c1ccccc1)c1ccccc1` reads 173 to 175 °C; that for `O=C(NO)C(=O)c1ccc(OCCOc2ccc3ccccc3c2)s1`, 165 to 167 °C; that for `CN1C(=O)C(C)(C)N=C(c2ccccc2Cl)c2c1ccc(N)c2Br`, 188 to 189 °C.
`O=C(NC12CC3CC(CC(C3)C1)C2)OCCc1cccs1` displayed a melting point of 67 to 69 °C.
Then `CCCCc1cc(C(N)=O)ccc1OCCCNc1cnn(C(C)C)c(=O)c1Cl`, with 172 to 174 °C; and `CCN1CCN(c2nc(-c3ccccc3)nc3sc(C#N)c(C)c23)CC1`, with 178 to 179 °C; and `O=C(Nc1ccncc1)c1ccc(-c2ccc3nnn(Cc4ccc5ncccc5c4)c3n2)cc1F`, with 217 to 219 °C.
The result for `CCC(=O)OC1C(CO)OC(n2cnc3c(N)ncnc32)C1OC(=O)CC` (stereo unspecified) reads 172 to 173 °C; that for `O=C(NC(Cc1ccccc1)C(=O)O)OCc1ccc(COc2ccc(F)cc2)cc1` (stereo unspecified), 112 to 113 °C.
Then `CCCCc1ccc(NC(=O)OCc2ccccc2)c(=O)n1CC(=O)OC`, with 111 to 112 °C; and `CCCCc1ccc(-c2ncc(C#N)cn2)cc1`, with 109 to 110 °C; and `COc1cc(CC(C#N)=CN2CCOCC2)cc(OC)c1N`, with 128 to 129 °C.
As to `N#Cc1ccc(Oc2ccccc2Oc2ccc(C#N)cc2)cc1`, the melting point was 112 °C.
In turn, `CC(C)(C)OC(=O)NC1COCCCC=CC2CC2(C(=O)NS(=O)(=O)C2CC2)NC(=O)C2CC(OC(=O)c3cccc(Oc4ccccc4)c3)CN2C1=O` (stereo unspecified) gave a melting point of 123 to 125 °C.
The result for `O=CN1CCN(c2ccnc(Cl)n2)CC1` reads 125 to 126 °C; that for `CS(=O)(=O)c1cc(Cl)cc(-c2cccnc2-c2cccnc2)c1`, 135 °C.
Then `OC1(c2nccc3ccccc23)CCNCC1`, with 138 to 140 °C.
Then `COc1cc2c(cc1OCCCN1CCC(c3noc4cc(F)ccc34)CC1)CCCC2=O`, with 129 to 131 °C.
For `Cc1ccc2c(c1)[nH]c(=O)n2CCCN1CCC2(CC1)C(=O)NCN2c1ccccc1`, the melting point was 256 °C.
The result for `COc1ccc2c(c1)C1=C(CC2)NC(=O)CC1` reads 227 to 228 °C.
The result for `COC(=O)c1cc(C(=O)NCC(=O)O)c2cc(Cc3ccc(F)cc3)cnc2c1O` reads 246 to 247 °C; that for `COc1ccc(CN2Cc3c(-c4noc(C5CC5)n4)ncn3-c3ccc(Cl)cc3C2=O)c(OC)c1`, 198 to 205 °C.
Then `Cn1ncc(C=O)c1-c1ccoc1`, with 70 to 71 °C; and `Cc1nnc2c(-c3cccnc3)cccn12`, with 112 to 115 °C.
`c1coc(C2=NOCCS2)c1` displayed a melting point of 147 to 150 °C.
The result for `CCC12CCC3C4CCC(=O)C=C4C(C)CC3C1CCC2O` (stereo unspecified) reads 127 to 130 °C; that for `COc1cc2ccc(CC(=O)Cl)cc2cc1OC`, 51 to 62 °C.
Then `COCCN(C)c1nnc(-c2ccc(-c3ccccc3)nc2)n1-c1ccccc1C#N`, with 148 to 149 °C; and `COCOc1cc(F)ccc1-c1cc(-c2cccc(NC(=O)CN3CCCCC3)c2)c(C#N)c(NC(=O)c2ccco2)n1`, with 140 to 142 °C; and `COc1cc2ncc(NC3CCCCC3)nc2cc1N1CCOCC1`, with 194 to 196 °C.
Then `CCCCOc1cc(CCC(=O)O)n(Cc2ccc(C(F)(F)F)cc2)n1`, with 116 to 118 °C; and `Cc1c(Br)sc2ccc(Br)cc12`, with 118 to 122 °C.
Turning to `O=C(NCc1ccc(Cl)cc1)c1cnc2ccc(O)cc2c1O`, the melting point lay in the range of 319 to 320 °C.
Then `COc1cnc2[nH]cc(/C=C3\N=C(NCC4CC4)NC3=O)c2c1`, with 280 to 286 °C; and `Cc1c(NC(=O)c2ccc(OCC3CC3)cc2)ccc2cc(CN3CCCC3)cnc12`, with 168 °C.
Then `CC(CC(=O)NC(=O)OC(C)(C)C)Nc1ccc(Cl)cc1` (stereo unspecified), with 114 to 115 °C.
Then `COc1ccc(CNC(=O)c2cc3c(=O)n(CCC(=O)c4ccccc4)c(=O)n(C)c3s2)cc1`, with 208 to 211 °C; and `O=C(NCC12CC3CC(CC(Cl)(C3)C1)C2)c1ccccc1Cl`, with 153 °C.
Turning to `CCOC(=O)C(C)(C)Oc1ccc2c(-c3ccc(Cl)cc3)noc2c1`, the melting point came to 70 °C.
The result for `CC12CCC3C(CC4OC45CC(O)CCC35C)C1CCC2=O` (stereo unspecified) reads 197 to 200 °C; that for `O=C(NCCCCCn1ccnc1)c1ccc(Cl)nc1`, 110 to 112 °C.
The result for `O=C(CNC(=O)c1cc([N+](=O)[O-])c([N+](=O)[O-])cc1Cl)OCc1ccccc1` reads 122 to 124 °C; that for `COc1ccc2c3c(c(=O)oc2c1OC)CN(CC(C)=O)CC3`, 145 to 147 °C; that for `N#CC(SSC(C#N)c1c[nH]c2ccccc12)c1c[nH]c2ccccc12` (stereo unspecified), 169 to 170 °C.
Then `NC(c1ccc(Cl)cc1Cl)P(O)O` (stereo unspecified), with 244 °C.
Regarding `CCCCCCCCC(Sc1ccccn1)C(=O)Nc1cccc2cnccc12` (stereo unspecified), the melting point is 81 to 83 °C.
The result for `CC(=O)NC[C@H]1CN(c2ccc3c(c2)C[C@@H](C)N3C(=O)COC(C)=O)C(=O)O1` reads 186 to 187 °C; that for `O=C1CCC(N2Cc3c(OCc4nc(CN5CCOCC5)cs4)cccc3C2=O)C(=O)N1` (stereo unspecified), 218 to 220 °C.
Then `C=Cc1cc(CCNc2ncnc3c(F)ccc(F)c23)ccc1Oc1cc(C(F)(F)F)ccn1`, with 86 °C.
Then `O=C(CCC(=O)c1cccs1)Nc1cccc2cc(-c3nccs3)[nH]c12`, with 140 to 141 °C.
Compound `CC(C)C[C@H](NC(C)C)C(=O)O` returned a melting point of 293 to 296 °C.
The result for `CC(=O)C1=C(O)C(=C(C)Nc2cccc(S(N)(=O)=O)c2)C(=O)OC1=O` reads 237 °C; that for `CNC(=O)n1nc(-c2ccc(Cl)cc2)nc1N`, 193 to 196 °C; that for `O=C(O)C1=Cc2cc(Oc3ccccc3)ccc2OC1C(F)(F)F` (stereo unspecified), 185 to 186 °C.
The compound `COc1cc(-c2ncn(C)c2-c2ccc(C(F)(F)F)cc2)cc(OC)c1OC` showed a melting point of 168 °C.
The result for `COC(=O)N[C@H]1Cc2ccccc2C1=O` reads 157 to 159 °C; that for `CC(=S)NC[C@H]1CN(c2ccc(N3CCN(C)C3=O)c(F)c2)C(=O)O1`, 168 °C; that for `CCCCCCCCCCCCCCCCCCOc1ccc2ccccc2c1O`, 58 to 59 °C.
Then `O=C1Nc2ccc(F)c(Cl)c2C(=O)N2CCC[C@@H]12`, with 217 to 219 °C.
The result for `CC(C)(C)Oc1ccc(S(=O)(=O)N2c3ccccc3C[C@H]2C(=O)NCCOc2ccc(CC(=O)O)cc2)cc1` reads 68 to 71 °C.
Compound `NC(=O)C[C@H](NS(=O)(=O)c1ccc2c(c1)Sc1ccccc1O2)C(=O)O` returned a melting point of 165 to 175 °C.
Then `CC(NC(=O)c1ccccc1I)C(O)c1ccccc1` (stereo unspecified), with 129 to 130 °C; and `COc1ccc2c(c1)SC(CCBr)C(=O)N2` (stereo unspecified), with 142 to 143 °C.
